Reference: patent US12133855B2, “Lipid-like nanocomplexes and uses thereof” (Trustees of Tufts College, priority 2018, dated 2024)

Experiments:
HeLa-DsRed cells [1] = assay: Cre-mediated gene recombination (DsRed expression) after (−30)GFP-Cre/LNP delivery; format: cell-based; settings: 24 h; 25 nM (−30)GFP-Cre; lipidoid 3.3 mg/L
Method: (§1) The final (−30)GFP-Cre protein concentration is 25 nM, and lipidoid concentration is 3.3 mg/L. For the gene recombination functional study, HeLa-DsRed cells were treated with same conditions and the red fluorescence emission from DsRed was analyzed by flow cytometry 24 h after delivery.
The top 12 of LNPs identified through intracellular delivery screening experiments were further tested for gene recombination using HeLa-DsRed model cells. The expression of DsRed from Cre protein mediated gene recombination was analyzed after 24 h of co-incubation with free (−30)GFP-Cre protein and protein loaded LNPs. […] Most of the test LNPs, on the other hand, efficiently delivered (−30)GFP-Cre protein and induced gene recombination, with 14-46% of the cells positive for DsRed.

[2] = TEM size of lipidoid nanoparticles; format: physicochemical; settings: TEM images of LNPs
Method: (§2) All chemicals used for lipidoids synthesis were purchased from Sigma-Aldrich without further purification unless otherwise noted. (−30)GFP-Cre recombinase, S. pyogenes Cas9 (spCas9) and sgRNA were generated following the protocols reported in Wang at al., Proc. Natl. Acad. Sci. USA, 2016, 113, 2868-2873 (“Wang”). HeLa-DsRed and GFP-HEK cells were cultured in Dulbecco's modified eagle's medium (DMEM, Sigma-Aldrich) with 10% fetal bovine serum (FBS, Sigma-Aldrich) and 1% penicillin-streptomycin (Gibco). All ^1H NMR spectra were recorded on a Bruker AVIII 500 MHz NMR spectrometer operated in the Fourier transform mode. Hydrodynamic size and polydispersity index of nanoparticles were measured by Zeta-PALS particle size analyzer (Brookhaven Instruments). The apparent pKa values of lipidoids were determined using 2-(p-toluidinynaphthalene-6-sulphonic acid) (TNS, Sigma-Aldrich) as fluorescent probe following the protocols reported in Heyes et al., J. Controlled Release, 2005, 107, 276-287. TEM measurements were performed on a FEI Technai Transmission Electron Microscope. Fluorescence images of tissue slices were obtained using BZ-X Analyzer fluorescence microscope.
(§3) The morphologies of LNPs were further studied by the transmission electron microscopy (TEM). […] Subsequently, the stability of LNPs thus prepared was examined by DLS and fluorescence measurements.
The morphologies of OCholB fully substituted LNPs were then examined by transmission electron microscopy (TEM). […] In contrast, the vesicular structures were not well-formed for 87-OCholB and 90-OCholB compared to their counterparts, and amorphous aggregates were observed instead.

HeLa-DsRed cells [3] = assay: Intracellular delivery of (−30)GFP-Cre/LNP (GFP-positive cells); format: cell-based; settings: 25 nM (−30)GFP-Cre, lipidoid 3.3 mg/L; for green fluorescence emission (fluorescence microscopy): 6 h incubation; for GFP-positive cells: flow cytometry, 6 h
Method: as §1
A Cre recombinase protein fused to a negatively supercharged GFP variant ((−30)GFP-Cre) was used as a model cargo protein. The (−30)GFP-Cre protein was able to complex with cationic LNPs through electrostatic attraction and other types supramolecular interactions. The cellular uptake of LNPs could be determined by direct analysis of intracellular GFP fluorescent intensity as reported in Wang. HeLa-DsRed cells were used in this study, which expressed red fluorescent DsRed upon Cre-mediated recombination to facilitate the functional study of delivered proteins in the following study.
The (−30)GFP-Cre protein loaded LNPs (GFP-Cre/LNPs) were prepared at first by simply mixing precalculated amount of aqueous solution of LNPs and protein at ambient conditions. For the intracellular delivery, after incubation with GFP-Cre/LNPs nanoparticles for 6 h, the GFP-positive cells were observed using fluorescence microscopy, harvested and counted by flow cytometry. […] The intracellular (−30)GFP-Cre protein delivery efficiencies were further quantified by flow cytometry.

[4] = Hydrodynamic size and polydispersity of lipidoid nanoparticles by DLS; format: physicochemical; settings: blank LNPs
Method: as §2
Lipidoids nanoparticles (LNPs) were fabricated in sodium acetate buffer (25 mM, pH 5.2) by following the simple ultrasonication and vortex procedures described above. Hydrodynamic sizes and polydispersity index (PDI) of LNPs were measured by dynamic laser scattering (DLS) analysis.
Lipidoids were fabricated into nanoparticles for all delivery applications.
In this context, two strategies were tested, i.e., synthesizing new OCholB-tailed lipidoids with single tail rather than full substitution, and adding helper lipids (phospholipids) into fully substituted OCholB LNPs. […] The delivery efficacies of the single-tailed LNPs were first tested using GFP mRNA against HeLa cells (lipidoid/mRNA=10/1; [mRNA]=0.86 μg mL^−1; 24 h of exposure). […] We then tried to add helper lipids into the original two-tailed OCholB lipidoid nanoparticles formulations. As a proof-of-concept, DOPE was mixed with OCholB lipidoids (lipidoid/DOPE=1/1, weight ratio) and nanoparticles were fabricated (noted as 75-OCholB-F, 76-OCholB-F, and 77-OCholB-F) and loaded with Cas9 mRNA and sgRNA (mRNA/sgRNA=1/1, weight ratio).

Ai14 mice = assay: In vivo (−30)GFP-Cre delivery with formulated O17 LNPs, intravenous, tdTomato expression; set-up: species or system mouse; settings: day 0 and day 5, 100 μg protein each, organs at day 20
Method: Formulated LNPs (lipidoid/Cholesterol/DOPE/DSPE-PEG2k=16/4/1/4, weight ratio) were prepared for protein loading and mice injection. Ai14 mice were housed in a temperature and humidity controlled facility with a 12 h light/dark cycle. Two mice in each group were injected with (−30)GFP-Cre/LNPs formulations on day 0 and 5, with 100 μg protein for each injection. Organs including heart, liver, spleen, lung and kidney from all groups were collected 20 days after injections. The tissues were fixed overnight in 4% paraformaldehyde (PFA) before being sectioning into 10 μm slices. The slices were collected and stained with DAPI for fluorescence imaging.
Upon Cre mediated gene recombination, the STOP cassette was removed, resulting in tdTomato expression. Considering the different performances of cargo loaded LNPs in vitro and in vivo, three LNPs with same amine heads and different tails (76-O17O, 76-O17S and 76-O17Se) were tested in this study. Formulated LNPs (lipidoid/cholesterol/DOPE/DSPE-PEG2k=16/4/1/4, weight ratio) were prepared. Mice were injected (intravenous injection) with (−30)GFP-Cre loaded the formulated LNPs (GFP-Cre/76-O17O, GFP-Cre/76-O17S, and GFP-Cre/76-O17Se) at day 0 and day 5 (100 μg of protein for each injection). […] Fluorescence images with lower magnification and larger field of view were obtained. […]

GFP-HEK cells [5] = assay: Cas9:sgRNA RNP delivery, GFP gene knockout; format: cell-based; settings: 48 h; 25 nM Cas9:sgRNA RNP; lipidoid 3.3 mg/L
Method: For CRISPR/Cas9 gene knockout study, GFP-HEK cells were seeded in 48-well plate with a density of 2×10^4 cell/well. After 24 h of incubation, Cas9:sgRNA/LNP nanoparticles were added to the cells and incubated for 4 h, followed by media changed. After 48 h of incubation, the green emission from GFP was analyzed by flow cytometry.
For the intracellular delivery, GFP-HEK cells were harvested after treating with Cas9:sgRNA/LNPs nanocomplexes for 48 h. GFP gene knockout efficacy was further evaluated by flow cytometry.

GFP-HEK cells [6] = tested on: GFP-HEK cells
Method: Cell viability was measured by the standard MTT assay. HeLa-DsRed or GFP-HEK cells were seeded into 96-well plate with a density of 5×10^3 cell/well. (−30)GFP-Cre/LNP or Cas9:sgRNA/LNP nanoparticles were added after 24 h of incubation. The final concentration of protein is 25 nM and LNP is 3.3 mg/L. After incubating for 24 h or 48 h, the MTT reagent (5 mg/mL, in 30 μL PBS buffer) was added and the cells were incubated for another 4 h at 37° C. The cell culture media were then carefully removed and 200 μL of DMSO were added. The DMSO solution was transferred into another 96-well plate and the absorbance at 570 nm was recorded by microplate reader. All experiments were performed in quadruplicate.
In vitro cytotoxicity of Cas9:sgRNA/LNPs against GFP-HEK cells was also evaluated by the MTT assay.

[7] = Storage stability of LNPs (time-dependent DLS, DiO/DiI FRET); format: physicochemical; settings: DiO and DiI loaded LNPs, five days of storage
Method: as §3
The cell (HeLa and HeLa-DsRed cell lines) internalization studies were conducted using small molecular hydrophobic (nile red) and hydrophilic (calcein) fluorescent dyes and macromolecular fluorescent recombinant protein ((−30)GFP-Cre) loaded OCholB LNPs. The stabilities of cargo-loaded LNPs were examined at first using time-dependent DLS and fluorescence measurements.

HeLa cells [8] = assay: Internalization of calcein loaded nanoparticles; format: cell-based; settings: 8 h of exposure
Method: The internalization kinetics and efficiencies of OCholB LNPs were then studied using NR loaded LNPs and HeLa cells. […] Next, all of the NR delivery efficiencies of eight OCholB LNPs were determined after 8 h of exposure. […] Representative fluorescent images of NR/LNPs (NR/75-OCholB, NR/76-OCholB and NR/77-OCholB) treated HeLa cells are shown in FIG. 12D, from which it is easily observed that NR was delivered into the cells and mainly distributed in cytoplasm, by OCholB LNPs. Next, the internalization of negatively charged hydrophilic fluorescent dye, calcein, was studied. […] Next, the use of OCholB LNPs for the intracellular delivery of macromolecular cargo was explored, using fluorescent recombinant (−30)GFP-Cre protein and HeLa-DsRed cells as the model system. […] Delivery efficiency was tested at a range of (−30)GFP-Cre protein concentrations (25, 50 and 100 nM), with a consistent lipid/protein ratio (i.e., delivery with the final lipid concentration of 1.7, 3.3, and 6.6 μg mL^−1 respectively). 33.2%, 43.8% and 74% of GFP positive (GFP^+) cells were recorded for (−30)GFP-Cre/Lpf2k treated cells with the concentration of (−30)GFP-Cre 25 nM, 50 nM and 100 nM, respectively. […]

HeLa cells [9] = assay: Internalization of Dox loaded nanoparticles (flow cytometry); format: cell-based; settings: 8 h of exposure
Method: After 24 h of incubation at 37° C., 5% CO2, Dox, CPT or Oxa loaded nanoparticles were added to the cells and incubated for 8 h followed by media change. The cells were then incubated for another 40 h before cell viability analysis.
Doxorubicin hydrochloride (Dox) (water soluble), and camptothecin (CPT) and oxaliplatin (Oxa) (water insoluble) were encapsulated into LNPs (see experimental section) and tested against HeLa cells. […] Then the internalization of Dox loaded 75-OCholB LNP (Dox/75-OCholB) was studied after 8 h of exposure using flow cytometry.

SMILES	size measured by TEM [2] [nm]	green fluorescence emission (fluorescence microscopy) (HeLa-DsRed cells [3])	averaged hydrodynamic diameter (<Dh>) [4] [nm]	polydispersity index (PDI, μ2/I^2) [4]	GFP knockout (GFP-negative cells) (GFP-HEK cells [5]) [%]	cell viability (GFP-HEK cells [6]) [%]	also measured
CCCCCCCCCCCCCCSCCOC(=O)CCN(CCC(=O)OCCSCCCCCCCCCCCCCC)CCN1CCCC1 [Lipidoid 76-O17S]	94	bright green fluorescence emission	114.3	0.24			cells positive for DsRed (protein transfection efficiency) (HeLa-DsRed cells [1]): 40.8%; tdTomato signal in sections of lung (Ai14 mice): strong tdTomato signals
CCCCCCCCCCCCCC[Se]CCOC(=O)CCN(CCCN(C)C)CCCN(CCC(=O)OCC[Se]CCCCCCCCCCCCCC)CCC(=O)OCC[Se]CCCCCCCCCCCCCC [Lipidoid 400-O17Se]					57.4	66.7	GFP-positive cells (HeLa-DsRed cells [3]): 42%
CCCCCCCCCCCCCC[Se]CCOC(=O)CCN(CCC(=O)OCC[Se]CCCCCCCCCCCCCC)CCN1CCCC1 [Lipidoid 76-O17Se]	133	bright green fluorescence emission	129.4	0.18	50.2	76.3	FRET ratio (I575/I575+I505) variations [7]: negligible; cells positive for DsRed (protein transfection efficiency) (HeLa-DsRed cells [1]): 36.1%; tdTomato signal in sections of lung (Ai14 mice): strong tdTomato signals
CCCCCCCCCCCCCC[Se]CCOC(=O)CCN(CCCN(CC)CC)CCC(=O)OCC[Se]CCCCCCCCCCCCCC [Lipidoid 81-O17Se]					54.7	97.7	
O=C(O)CN(CC(=O)O)Cc1cc2c(cc1O)Oc1cc(O)c(CN(CC(=O)O)CC(=O)O)cc1C21OC(=O)c2ccccc21 [free calcein, calcein, reference compound]							mean fluorescent intensity vs free calcein-treated cells (HeLa cells [8]): cannot enter into the cells efficiently
COc1cccc2c1C(=O)c1c(O)c3c(c(O)c1C2=O)C[C@@](O)(C(=O)CO)C[C@@H]3O[C@H]1C[C@H](N)[C@H](O)[C@H](C)O1.Cl [free Dox, Doxorubicin hydrochloride]							mean fluorescence intensity vs untreated control cells (internalization) (HeLa cells [9]): could be readily internalized
CCCCCCCCCCCCCC[Se]CCOC(=O)CCN(CCCN(C)C)CCC(=O)OCC[Se]CCCCCCCCCCCCCC [Lipidoid 80-O17Se]					57.7	68.2	GFP-positive cells (HeLa-DsRed cells [3]): 39%
CCCCCCCCCCCCCCOCCOC(=O)CCN(CCC(=O)OCCOCCCCCCCCCCCCCC)CCN1CCCC1 [Lipidoid 76-O17O]	145	bright green fluorescence emission	170.1	0.37			
